Source: patent US6376427B1, “Herbicidal compositions” (Sumitomo Chemical Company, Limited, priority 1998, dated 2002)

Tests used:
giant foxtail [1] = assay: Test Example 2: post-emergence foliar spray, herbicidal activity; type: in vivo, giant foxtail (Setaria faberi); conditions: sprayed on 22-day plants, examined 5 days after application, index 0 to 10
Method: (§1) Plastic pots each having an area of 26.5×19 cm^2 and a depth of 7 cm were filled with upland soil, and then seeded with soybean, corn and giant foxtail. The corn was grown for 13 days, and the soybean and giant foxtail were grown for 22 days in a greenhouse. An emulsifiable concentrate compound A which had been obtained by well mixing 10 parts of compound A, 14 parts of polyoxyethylene styryl phenyl ether, 6 parts of calcium dodecylbenzenesulfonate, 35 parts of xylene, and 35 parts of cyclohexanone, an emulsifiable concentrate of flufenacet which had been obtained by well mixing 10 parts of flufenacet, 14 parts of polyoxyethylene styryl phenyl ether, 6 parts of calcium dodecylbenzenesulfonate, 35 parts of xylene, and 35 parts of cyclohexanone, and a mixture of the emulsifiable concentrate of compound A and the emulsifiable concentrate of flufenacet were independently diluted in their prescribed amounts with water. Each dilution was uniformly sprayed over the plants with a small sprayer. After the application, the plants were grown in the greenhouse for 5 days, and the herbicidal activity and safety to soybean and corn were then examined.

giant foxtail [2] = assay: Test Example 1: post-emergence foliar spray, herbicidal activity; type: in vivo, giant foxtail (Setaria faberi); conditions: sprayed on 23-day plants, examined 5 days after application, index 0 to 10
Method: (§2) Plastic pots each having an area of 26.5×19cm^2 and a depth of 10 cm were filled with upland soil, and then seeded with wheat and giant foxtail. The wheat was grown for 14 days and t he giant foxtail was grown for 23 days in a greenhouse. An emulsifiable concentrate compound A which had been obtained by well mixing 10 parts of compound A, 14 parts of polyoxyethylene styryl phenyl ether, 6 parts of calcium dodecylbenzenesulfonate, 35 parts of xylene, and 35 parts of cyclohexanone, an emulsifiable concentrate of flufenacet which had been obtained by well mixing 10 parts of flufenacet, 14 parts of polyoxyethylene styryl phenyl ether, 6 parts of calcium dodecylbenzenesulfonate, 35 parts of xylene, and 35 parts of cyclohexanone, and a mixture of the emulsifiable concentrate of compound A and the emulsifiable concentrate of flufenacet were independently diluted in their prescribed amounts with water. Each dilution was uniformly sprayed over the plants with a small sprayer. After the application, the plants were grown in the greenhouse for 5 days, and the herbicidal activity and safety to wheat were then examined.

wheat = assay: Test Example 1: safety to wheat (phytotoxicity); type: in vivo, wheat (Triticum aestivum); conditions: dosage 10 g/ha; sprayed on 14-day wheat; examined 5 days after application
Method: as §2

corn = assay: Test Example 2: safety to corn (phytotoxicity); type: in vivo; conditions: dosage 40 g/ha; sprayed on 13-day corn; examined 5 days after application
Method: as §1

soybean = assay: Test Example 2: safety to soybean (phytotoxicity); type: in vivo; conditions: dosage 40 g/ha; sprayed on 22-day soybean; examined 5 days after application
Method: as §1

| SMILES | Herbicidal activity Giant foxtail (giant foxtail [1]; dosage 400 g/ha) | Herbicidal activity Giant foxtail (giant foxtail [2]; dosage 240 g/ha) | Phytotoxicity Wheat (wheat) | Phytotoxicity Corn (corn) | Phytotoxicity Soybean (soybean) | Herbicidal activity Giant foxtail (giant foxtail [1]; dosage 40 g/ha) | Herbicidal activity Giant foxtail (giant foxtail [2]; dosage 10 g/ha) |
| --- | --- | --- | --- | --- | --- | --- | --- |
| CC(C)N(C(=O)COc1nnc(C(F)(F)F)s1)c1ccc(F)cc1 [Flufenacet, 4-fluoro-N-isopropyl-2-(5-trifluoromethyl-,1,3,4-thiadiazol-2-yloxy)acetanilide, reference compound] | 2 | 2 | – | – | – | – | – |
| CCOC(=O)COc1cc(-n2ncc(C(F)(F)F)c(C)c2=O)c(F)cc1Cl [Compound A] | – | – | No harm | No harm | No harm | 4 | 3 |
